In patent US9884868B2, “TGF-beta inhibitors” (Rigel Pharmaceuticals, Inc., priority 2015, dated 2018) one finds IC50 data, which are given here for 37 compounds.

Structures can show the parent of a compound that is named as a salt.

What is called IC50 is the midpoint of a concentration-inhibition curve.

HIS-TGF-βR1 T204D, sequence (P36897 34-503 T204D): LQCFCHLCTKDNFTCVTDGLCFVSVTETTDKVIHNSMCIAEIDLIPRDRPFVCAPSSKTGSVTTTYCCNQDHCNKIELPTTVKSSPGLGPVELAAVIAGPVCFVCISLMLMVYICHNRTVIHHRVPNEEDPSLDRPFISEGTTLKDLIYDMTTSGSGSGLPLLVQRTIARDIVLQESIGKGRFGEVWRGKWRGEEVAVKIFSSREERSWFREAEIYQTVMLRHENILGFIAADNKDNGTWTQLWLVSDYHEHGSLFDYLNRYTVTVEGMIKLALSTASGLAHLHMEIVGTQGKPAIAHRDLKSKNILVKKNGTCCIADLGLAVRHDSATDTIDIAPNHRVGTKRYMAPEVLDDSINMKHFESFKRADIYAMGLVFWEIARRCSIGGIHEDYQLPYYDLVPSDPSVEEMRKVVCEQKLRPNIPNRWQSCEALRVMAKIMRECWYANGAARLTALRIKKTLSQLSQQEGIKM

This assay has as its target HIS-TGF-βR1 T204D (Homo sapiens (Human), UniProt P36897, T204D). The assay can be described thus: HTRF probe displacement assay with HIS-TGF-βR1 T204D. The settings on record: read-out: TGFbr1 IC50; HTRF probe displacement, 1 nM HIS-TGF-βR1 T204D, 1 hour at room temperature. In general terms: In TR-FRET formats the signal depends on donor and acceptor labels being close together.
As to `N#Cc1cnc2ccc(-c3c(-c4ccc(F)c(Cl)c4)ncn3C3CC3)nn12` [36′, 6-(4-(3-chloro-4-fluorophenyl)-1-cyclopropyl-1H-imidazol-5-yl)imidazo[1,2-b]pyridazine-3-carbonitrile], the 50% inhibitory concentration (IC50) is 1.3 nM. On to `OCc1cnc2ccc(-c3c(-c4ccc(F)cc4)ncn3CC(F)F)nn12` [Example 210′, (6-(1-(2,2-difluoroethyl)-4-(4-fluorophenyl)-1H-imidazol-5-yl)imidazo[1,2-b]pyridazin-3-yl)methanol], for which the IC50 was found to be 2.2 nM. The value for `N#Cc1cnc2ccc(-c3c(-c4ccc(F)cc4)ncn3C3CC(F)(F)C3)cn12` [66′, 6-(1-(3,3-difluorocyclobutyl)-4-(4-fluorophenyl)-1H-imidazol-5-yl)imidazo[1,2-a]pyridine-3-carbonitrile] was 418 nM. The value for `Fc1ccc(-c2ncn([C@@H]3CCC(F)(F)C3)c2-c2ccc3nccn3c2)cc1Cl` [185′, (R)-6-(4-(3-chloro-4-fluorophenyl)-1-(3,3-difluorocyclopentyl)-1H-imidazol-5-yl)imidazo[1,2-a]pyridine] was 30.1 nM. In the case of `N#Cc1cnc2ccc(-c3c(-c4ccc(F)c(Cl)c4)ncn3C34CC(C3)C4)nn12` [59′, 6-(1-(bicyclo[1.1.1]pentan-1-yl)-4-(3-chloro-4-fluorophenyl)-1H-imidazol-5-yl)imidazo[1,2-b]pyridazine-3-carbonitrile], the IC50 amounted to 1.1 nM. Regarding `Nc1nc(-c2ccc(F)cc2)c(-c2ccc3nccn3c2)n1CC(F)F` [Example 296′, 1-(2,2-difluoroethyl)-4-(4-fluorophenyl)-5-(imidazo[1,2-a]pyridin-6-yl)-1H-imidazol-2-amine, 2 HCl], the concentration for half-maximal inhibition (IC50) was determined as 109 nM. With `C[C@@H](O)Cn1cnc(-c2ccc(F)cc2)c1-c1ccc2ncc(C(N)=O)n2c1` [155′, (R)-6-(4-(4-fluorophenyl)-1-(2-hydroxypropyl)-1H-imidazol-5-yl)imidazo[1,2-a]pyridine-3-carboxamide], the concentration for half-maximal inhibition (IC50) turned out to be 5.5 nM. The value for `N#Cc1cnc2ccc(-c3c(-c4ccc(F)c(Cl)c4)ncn3CCC3CCC3)nn12` [40′, 6-(4-(3-chloro-4-fluorophenyl)-1-(2-cyclobutylethyl)-1H-imidazol-5-yl)imidazo[1,2-b]pyridazine-3-carbonitrile] was 0.6 nM; that for `CC(C)(O)c1cnc2ccc(-c3c(-c4ccc(F)cc4)ncn3CC(F)F)nn12` [Example 204′, 2-(6-(1-(2,2-difluoroethyl)-4-(4-fluorophenyl)-1H-imidazol-5-yl)imidazo[1,2-b]pyridazin-3-yl)propan-2-ol] was 1.2 nM; that for `NC(=O)c1cnc2ccc(-c3c(-c4ccc(F)cc4)ncn3C[C@H](O)CO)cn12` [161′, (S)-6-(1-(2,3-dihydroxypropyl)-4-(4-fluorophenyl)-1H-imidazol-5-yl)imidazo[1,2-a]pyridine-3-carboxamide] was 6.7 nM. The value for `N#Cc1cnc2ccc(-c3c(-c4cc(Cl)ccc4F)ncn3CC(F)F)cn12` [228′, 6-(4-(5-chloro-2-fluorophenyl)-1-(2,2-difluoroethyl)-1H-imidazol-5-yl)imidazo[1,2-a]pyridine-3-carbonitrile] was 3.7 nM; that for `Cn1cnc(-c2ccc(F)c(Cl)c2)c1-c1ccc2ncc(C#N)n2c1` [98′, 6-(4-(3-chloro-4-fluorophenyl)-1-methyl-1H-imidazol-5-yl)imidazo[1,2-a]pyridine-3-carbonitrile] was 17.3 nM; that for `CC(O)Cn1cnc(-c2ccc(F)cc2)c1-c1ccc2ncc(C(N)=O)n2c1` (stereo not shown) [176′, 6-(4-(4-fluorophenyl)-1-(2-hydroxypropyl)-1H-imidazol-5-yl)imidazo[1,2-a]pyridine-3-carboxamide] was 5.2 nM. As to `CC(C)(O)CCn1cnc(-c2ccc(F)cc2)c1-c1ccc2ncc(C#N)n2n1` [12′, 6-(4-(4-fluorophenyl)-1-(3-hydroxy-3-methylbutyl)-1H-imidazol-5-yl)imidazo[1,2-b]pyridazine-3-carbonitrile], the IC50 stood at 2.1 nM.

With `N#Cc1cnc2ccc(-c3c(-c4ccc(F)cc4)ncn3C(CO)CO)cn12` [85′, 6-(1-(1,3-dihydroxypropan-2-yl)-4-(4-fluorophenyl)-1H-imidazol-5-yl)imidazo[1,2-a]pyridine-3-carbonitrile], the concentration for half-maximal inhibition (IC50) was 144 nM. With `Fc1ccc(-c2ncn(CC(F)F)c2-c2ccc3nccn3c2)c(F)c1` [221′, 6-(1-(2,2-difluoroethyl)-4-(2,4-difluorophenyl)-1H-imidazol-5-yl)imidazo[1,2-a]pyridine], the IC50 is 6.8 nM. `N#CC1(n2cnc(-c3ccc(F)cc3)c2-c2ccc3nccn3n2)CC1` [Example 188′, 1-(4-(4-fluorophenyl)-5-(imidazo[1,2-b]pyridazin-6-yl)-1H-imidazol-1-yl)cyclopropanecarbonitrile]: the half-inhibitory concentration (IC50) amounted to 2 nM.

In the case of `CONC(=O)c1cnc2ccc(-c3c(-c4ccc(F)cc4)ncn3CC(F)F)nn12` [209′, 6-(1-(2,2-difluoroethyl)-4-(4-fluorophenyl)-1H-imidazol-5-yl)-N-methoxyimidazo[1,2-b]pyridazine-3-carboxamide], the IC50 was determined as 0.7 nM. As for `CCn1cnc(-c2ccc(F)c(Cl)c2)c1-c1ccc2ncc(C#N)n2c1` [94′, 6-(4-(3-chloro-4-fluorophenyl)-1-ethyl-1H-imidazol-5-yl)imidazo[1,2-a]pyridine-3-carbonitrile], the IC50 came to 13.1 nM. For `CCn1cnc(-c2ccc(F)cc2)c1-c1ccc2ncc(C(N)=O)n2c1` [160′, 6-(1-ethyl-4-(4-fluorophenyl)-1H-imidazol-5-yl)imidazo[1,2-a]pyridine-3-carboxamide], the IC50 was found to be 0.8 nM. On to `NC(=O)c1cnc2ccc(-c3c(-c4ccc(F)c(Cl)c4)ncn3CCC3CCC3)nn12` [150′, 6-(4-(3-chloro-4-fluorophenyl)-1-(2-cyclobutylethyl)-1H-imidazol-5-yl)imidazo[1,2-b]pyridazine-3-carboxamide], for which the IC50 is 1.2 nM. Regarding `Cn1cnc(-c2ccc(F)c(Cl)c2)c1-c1ccc2nccn2c1` [181′, 6-(4-(3-chloro-4-fluorophenyl)-1-methyl-1H-imidazol-5-yl)imidazo[1,2-a]pyridine], the IC50 came out at 6 nM. Consider `N#Cc1cnc2ccc(-c3c(-c4cc(Cl)c(F)cc4F)ncn3CC(F)F)cn12` [229′, 6-(4-(5-chloro-2,4-difluorophenyl)-1-(2,2-difluoroethyl)-1H-imidazol-5-yl)imidazo[1,2-a]pyridine-3-carbonitrile], for which the IC50 turned out to be 8.6 nM. The value for `NC(=O)c1cnc2ccc(-c3c(-c4ccc(F)cc4)ncn3C[C@@H](O)CO)cn12` [164′, (R)-6-(1-(2,3-dihydroxypropyl)-4-(4-fluorophenyl)-1H-imidazol-5-yl)imidazo[1,2-a]pyridine-3-carboxamide] was 5.7 nM. As for `N#Cc1cnc2ccc(-c3c(-c4ccc(F)c(Cl)c4)ncn3CCO)nn12` [Example 32′, 6-(4-(3-chloro-4-fluorophenyl)-1-(2-hydroxyethyl)-1H-imidazol-5-yl)imidazo[1,2-b]pyridazine-3-carbonitrile], the 50% inhibitory concentration (IC50) turned out to be 1.8 nM.

As to `NC(=O)c1cnc2ccc(-c3c(-c4ccc(F)cc4)ncn3C3CC(F)(F)C3)nn12` [106′, 6-(1-(3,3-difluorocyclobutyl)-4-(4-fluorophenyl)-1H-imidazol-5-yl)imidazo[1,2-b]pyridazine-3-carboxamide], the half-maximal inhibitory concentration (IC50) worked out at 6.1 nM. In the case of `Cn1cnc(-c2ccc(F)cc2)c1-c1ccc2ncc(C(N)=O)n2n1` [134′, 6-(4-(4-fluorophenyl)-1-methyl-1H-imidazol-5-yl)imidazo[1,2-b]pyridazine-3-carboxamide] it was 3.9 nM; in that of `NC(=O)c1cnc2ccc(-c3c(-c4ccc(F)cc4)ncn3[C@H]3C[C@@H](O)C3)nn12` [Example 123′], 4.2 nM.

`Cc1ccc(-c2ncn(CC(F)F)c2-c2ccc3ncc(C#N)n3n2)cc1` [241′, 6-(1-(2,2-difluoroethyl)-4-(p-tolyl)-1H-imidazol-5-yl)imidazo[1,2-b]pyridazine-3-carbonitrile]: the IC50 came out at 173 nM. Regarding `Fc1cc(F)c(-c2ncn(CC(F)F)c2-c2ccc3nccn3c2)cc1Cl` [223′, 6-(4-(5-chloro-2,4-difluorophenyl)-1-(2,2-difluoroethyl)-1H-imidazol-5-yl)imidazo[1,2-a]pyridine], the IC50 was 2.2 nM. The value for `CC(C)C(C)n1cnc(-c2ccc(F)cc2)c1-c1ccc2ncc(C#N)n2c1` (stereo not shown) [76′, 6-(4-(4-fluorophenyl)-1-(3-methylbutan-2-yl)-1H-imidazol-5-yl)imidazo[1,2-a]pyridine-3-carbonitrile] was 999 nM. Turning to `CC(C)Cn1cnc(-c2ccc(F)cc2)c1-c1ccc2ncc(C#N)n2c1` [82′, 6-(4-(4-fluorophenyl)-1-isobutyl-1H-imidazol-5-yl)imidazo[1,2-a]pyridine-3-carbonitrile], the IC50 turned out to be 71.6 nM. In the case of `N#Cc1cnc2ccc(-c3c(-c4ccc(F)cc4)ncn3C3CC(CO)C3)nn12` (stereo not shown) [27′, 6-(4-(4-fluorophenyl)-1-(3-(hydroxymethyl)cyclobutyl)-1H-imidazol-5-yl)imidazo[1,2-b]pyridazine-3-carbonitrile] it was 0.6 nM; in that of `Fc1ccc(-c2ncn(CC(F)F)c2-c2ccc3nccn3c2)cc1F` [220′, 6-(1-(2,2-difluoroethyl)-4-(3,4-difluorophenyl)-1H-imidazol-5-yl)imidazo[1,2-a]pyridine], 41.4 nM.

`NC(=O)c1cnc2ccc(-c3c(-c4ccc(F)cc4)ncn3C34CC(C3)C4)nn12` [136′, 6-(1-(bicyclo[1.1.1]pentan-1-yl)-4-(4-fluorophenyl)-1H-imidazol-5-yl)imidazo[1,2-b]pyridazine-3-carboxamide]: the 50% inhibitory concentration (IC50) amounted to 12.4 nM. As to `NC(=O)c1cnc2ccc(-c3c(-c4ccc(F)c(F)c4)ncn3CC(F)F)cn12` [232′, 6-(1-(2,2-difluoroethyl)-4-(3,4-difluorophenyl)-1H-imidazol-5-yl)imidazo[1,2-a]pyridine-3-carboxamide], the 50% inhibitory concentration (IC50) was 1.8 nM. Turning to `CC(=O)Nc1cnc2ccc(-c3c(-c4ccc(F)cc4)ncn3CC(F)F)nn12` [Example 212′, N-(6-(1-(2,2-difluoroethyl)-4-(4-fluorophenyl)-1H-imidazol-5-yl)imidazo[1,2-b]pyridazin-3-yl)acetamide], the concentration for half-maximal inhibition (IC50) worked out at 9.3 nM.
